# From the NIST ThermoML archive (doi:10.1021/je800416y)
# ± gives the expanded uncertainty stated by the source.
# Assays:
# [1] = xn = mol fraction of the nth substance listed; settings: 101 kPa, Liquid
# [2] = wn = mass fraction of the nth substance listed; settings: 101 kPa, Liquid
smiles,measurement,setting,value
CN(CCO)CCO [N-methyldiethanolamine] + O,mass density,"[1]; 323.15 K, x1 = 0.0212",998.073 ± 0.96 kg/m3
same,mass density,"[1]; 323.15 K, x1 = 0.0498",1007.87 ± 1 kg/m3
same,mass density,"[1]; 323.15 K, x1 = 0.0645",1013.06 ± 1.1 kg/m3
same,mass density,"[1]; 323.15 K, x1 = 0.0799",1016.68 ± 1.1 kg/m3
same,mass density,"[1]; 323.15 K, x1 = 0.1332",1026.23 ± 1.2 kg/m3
same,mass density,"[1]; 323.15 K, x1 = 0.1557",1028.34 ± 1.2 kg/m3
same,mass density,"[1]; 323.15 K, x1 = 0.1944",1031.78 ± 1.2 kg/m3
same,mass density,"[1]; 323.15 K, x1 = 0.2407",1033.11 ± 1.2 kg/m3
same,mass density,"[1]; 323.15 K, x1 = 0.2725",1033.74 ± 1.2 kg/m3
same,mass density,"[1]; 323.15 K, x1 = 0.366",1033.24 ± 1.2 kg/m3
same,mass density,"[1]; 323.15 K, x1 = 0.4302",1031.66 ± 1.2 kg/m3
same,mass density,"[1]; 323.15 K, x1 = 0.5642",1027.75 ± 1.1 kg/m3
same,mass density,"[1]; 323.15 K, x1 = 0.6687",1022.4 ± 1 kg/m3
same,mass density,"[1]; 323.15 K, x1 = 0.7531",1020.86 ± 1 kg/m3
same,mass density,"[1]; 328.15 K, x1 = 0.0128",991.808 ± 1 kg/m3
same,mass density,"[1]; 328.15 K, x1 = 0.0212",995.518 ± 0.98 kg/m3
same,mass density,"[1]; 328.15 K, x1 = 0.0498",1005.02 ± 0.98 kg/m3
same,mass density,"[1]; 328.15 K, x1 = 0.0645",1010.03 ± 1 kg/m3
same,mass density,"[1]; 328.15 K, x1 = 0.0799",1013.51 ± 1.1 kg/m3
same,mass density,"[1]; 328.15 K, x1 = 0.1332",1022.67 ± 1.1 kg/m3
same,mass density,"[1]; 328.15 K, x1 = 0.1557",1024.69 ± 1.2 kg/m3
same,mass density,"[1]; 328.15 K, x1 = 0.1944",1027.97 ± 1.2 kg/m3
same,mass density,"[1]; 328.15 K, x1 = 0.2407",1029.25 ± 1.2 kg/m3
same,mass density,"[1]; 328.15 K, x1 = 0.2725",1029.77 ± 1.2 kg/m3
same,mass density,"[1]; 328.15 K, x1 = 0.366",1029.24 ± 1.2 kg/m3
same,mass density,"[1]; 328.15 K, x1 = 0.4302",1027.68 ± 1.1 kg/m3
same,mass density,"[1]; 328.15 K, x1 = 0.5642",1023.83 ± 1.1 kg/m3
same,mass density,"[1]; 328.15 K, x1 = 0.6687",1018.52 ± 1 kg/m3
same,mass density,"[1]; 328.15 K, x1 = 0.7531",1016.84 ± 0.98 kg/m3
same,mass density,"[1]; 333.15 K, x1 = 0.0128",989.191 ± 1 kg/m3
same,mass density,"[1]; 333.15 K, x1 = 0.0212",992.82 ± 1 kg/m3
same,mass density,"[1]; 333.15 K, x1 = 0.0498",1002.04 ± 0.95 kg/m3
same,mass density,"[1]; 333.15 K, x1 = 0.0645",1006.73 ± 1 kg/m3
same,mass density,"[1]; 333.15 K, x1 = 0.0799",1010.24 ± 1 kg/m3
same,mass density,"[1]; 333.15 K, x1 = 0.1332",1019.02 ± 1.1 kg/m3
same,mass density,"[1]; 333.15 K, x1 = 0.1557",1020.96 ± 1.1 kg/m3
same,mass density,"[1]; 333.15 K, x1 = 0.1944",1024.08 ± 1.1 kg/m3
same,mass density,"[1]; 333.15 K, x1 = 0.2407",1025.29 ± 1.1 kg/m3
same,mass density,"[1]; 333.15 K, x1 = 0.2725",1025.95 ± 1.1 kg/m3
same,mass density,"[1]; 333.15 K, x1 = 0.366",1025.2 ± 1.1 kg/m3
same,mass density,"[1]; 333.15 K, x1 = 0.4302",1023.66 ± 1.1 kg/m3
same,mass density,"[1]; 333.15 K, x1 = 0.5642",1019.88 ± 1 kg/m3
same,mass density,"[1]; 333.15 K, x1 = 0.6687",1014.62 ± 0.97 kg/m3
same,mass density,"[1]; 333.15 K, x1 = 0.7531",1012.83 ± 0.94 kg/m3
same,mass density,"[1]; 338.15 K, x1 = 0.0128",986.433 ± 1.1 kg/m3
same,mass density,"[1]; 338.15 K, x1 = 0.0212",989.984 ± 1 kg/m3
same,mass density,"[1]; 338.15 K, x1 = 0.0498",998.939 ± 0.94 kg/m3
same,mass density,"[1]; 338.15 K, x1 = 0.0645",1003.61 ± 0.97 kg/m3
same,mass density,"[1]; 338.15 K, x1 = 0.0799",1006.85 ± 0.99 kg/m3
same,mass density,"[1]; 338.15 K, x1 = 0.1332",1015.29 ± 1.1 kg/m3
same,mass density,"[1]; 338.15 K, x1 = 0.1557",1017.15 ± 1.1 kg/m3
same,mass density,"[1]; 338.15 K, x1 = 0.1944",1020.13 ± 1.1 kg/m3
same,mass density,"[1]; 338.15 K, x1 = 0.2407",1021.29 ± 1.1 kg/m3
same,mass density,"[1]; 338.15 K, x1 = 0.2725",1021.9 ± 1.1 kg/m3
same,mass density,"[1]; 338.15 K, x1 = 0.366",1021.1 ± 1.1 kg/m3
same,mass density,"[1]; 338.15 K, x1 = 0.4302",1019.6 ± 1.1 kg/m3
same,mass density,"[1]; 338.15 K, x1 = 0.5642",1015.88 ± 1 kg/m3
same,mass density,"[1]; 338.15 K, x1 = 0.6687",1010.7 ± 0.93 kg/m3
same,mass density,"[1]; 338.15 K, x1 = 0.7531",1008.96 ± 0.91 kg/m3
same,mass density,"[2]; 298.15 K, w1 = 0.3228",1027.27 ± 1.1 kg/m3
same,mass density,"[2]; 298.15 K, w1 = 0.488",1041.37 ± 1.3 kg/m3
same,mass density,"[2]; 303.15 K, w1 = 0.3228",1024.82 ± 1.1 kg/m3
same,mass density,"[2]; 303.15 K, w1 = 0.488",1038.16 ± 1.2 kg/m3
same,mass density,"[2]; 308.15 K, w1 = 0.3228",1022.16 ± 1.1 kg/m3
same,mass density,"[2]; 308.15 K, w1 = 0.488",1034.94 ± 1.2 kg/m3
same,mass density,"[2]; 313.15 K, w1 = 0.3228",1019.44 ± 1.1 kg/m3
same,mass density,"[2]; 313.15 K, w1 = 0.488",1031.74 ± 1.2 kg/m3
same,mass density,"[2]; 318.15 K, w1 = 0.3228",1016.54 ± 1 kg/m3
same,mass density,"[2]; 318.15 K, w1 = 0.488",1028.35 ± 1.1 kg/m3
same,mass density,"[2]; 323.15 K, w1 = 0.3228",1013.63 ± 1 kg/m3
same,mass density,"[2]; 323.15 K, w1 = 0.488",1024.83 ± 1.1 kg/m3
same,mass density,"[2]; 328.15 K, w1 = 0.3228",1010.47 ± 0.98 kg/m3
same,mass density,"[2]; 328.15 K, w1 = 0.488",1021.38 ± 1.1 kg/m3
same,mass density,"[2]; 333.15 K, w1 = 0.3228",1007.39 ± 0.95 kg/m3
same,mass density,"[2]; 333.15 K, w1 = 0.488",1017.75 ± 1 kg/m3
same,mass density,"[2]; 338.15 K, w1 = 0.3228",1003.91 ± 0.92 kg/m3
same,mass density,"[2]; 338.15 K, w1 = 0.488",1014.17 ± 0.99 kg/m3
